Test results reported in US9072293B2, “Cyclopropenes and method for applying cyclopropenes to agricultural products or crops” (Erum Biotechnologies Inc., priority 2010, dated 2015).
“And” between values parts separate entries of the source, which are not always exact repeats. Identical values can stand only once.

What was measured:
[1] = Relative chemical stability of cyclopropenes measured by 1H-NMR; assay type: physicochemical
How it was run: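 Compounds in CDCl3 NMR tubes stored at −20° C. or room temperature and followed by 1H-NMR. Integrals of characteristic 1-alkylcyclopropene peaks (4–6.5 ppm, 1H; 0.8–0.9 ppm, 2H) compared against 1,1,3,3-tetramethylurea internal standard (2.80 ppm); stability expressed relative to chain-length-1 analogue.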

tomato [2] = assay: Experimental Example 2: Efficacy test on tomato using oil based formulation (reddening grade); assay type: in vivo; details: 1.0 mM oil-based formulation, individual tomatoes n=4
Text: (§1) At this time, the tops of tomatoes most early turned red, while the bottoms thereof most lately turned red. For this reason, in order to accurately evaluate the difference in reddening, the coloring evaluated was based on the area of red color, rather than the color of tomatoes. […] Accordingly, the grade level is proportional to the rate at which the tomatoes ripened.
As illustrated in Example 1, in situ, in accordance with the methods of Preparation Examples 15, 16, 17, 18 and 22, five agents (1.0 mmol) such as 1-(2-phenylethyl)cyclopropene, 1-(3-phenylpropyl)cyclopropene, 1-(4-phenylbutyl)cyclopropene, 1-(5-phenylpentyl)cyclopropene and 1-hexylcyclopropene were prepared, 5.0 ml of xylene and 5.0 ml of water were added to the reaction solution, vigorously stirred for 5 minutes and stood. When the mixture was separated into an organic layer (upper layer) and an aqueous layer (lower layer), only the organic layer was collected and the aqueous layer was discarded. […] of hexane was added to the organic layer and homogeneously mixed to prepare a 1.0 mM oil-based formulation.
The tomatoes were screened in the same manner as in Experimental Example 1 and divided into 7 groups (n=4) including a non-treated group, a control group (solvent-treated group) and 5 agent groups. Tomatoes were treated with the previously prepared agent using a household sprayer such that the surface thereof was saturated. The tomatoes were stood at room temperature (25-30° C.) for 3 days and a reddening level thereof was evaluated based on grades of 0 to 5.

tomato [3] = assay: Experimental Example 1: Efficacy test on tomato using emulsion (reddening grade); assay type: in vivo; details: individual tomatoes n=4
Protocol: In situ, a 1.0 mM 1-octylcyclopropene formulation was prepared using (trans)-1-octyl-1-(methanesulfonyloxy)-2-(trimethylsilyl)cyclopropane of Preparation Example 10 in the same manner as in Example 7. This solution was diluted to 1 to 100 times prior to use, as necessary. Experimental Example 1: Efficacy test on tomato using emulsion 1.0 mM formulations of five agents such as 1-(2-phenylethyl)cyclopropene, 1-(3-phenylpropyl)cyclopropene, 1-(4-phenylbutyl)cyclopropene, 1-(5-phenylpentyl)cyclopropene and 1-hexylcyclopropene were prepared in the same manner as in Example 1, and 1.0 mM and 100 μM solutions were prepared therefrom. Then, the effects of the solutions were compared with non-treated groups and control groups in which a surfactant or a stabilizing agent (sodium dodecylbenzenesulfonate or tristyrenylphenykethoxy)12ethanol) is dissolved.
Tomatoes whose top end began to turn pink were screened, harvested and divided into 12 groups (n=4) in total, i.e., non-treated groups, control groups (surfactant) and agent groups with different concentrations such as 100 μM and 1.0 mM. Tomatoes were treated with the prepared agent formulation using a household sprayer such that the surface thereof was saturated. The tomatoes were stood at room temperature (25-30° C.) for 3 days and a reddening level thereof was evaluated based on grades of 0 to 5.
as §1

chemical stability (in words) [1]: much more stable | Stability (relative chemical stability, based on cyclopropenes having a chain length of 1) ([1]; 1H-NMR, CDCl3, stored at −20° C. or room temperature, relative to chain length 1): >>10
Compound: C1=C(CCCCc2ccccc2)C1 [(4-Phenylbutyl), 1-(4-phenylbutyl)cyclopropene]
Tomato results: reddening level (grade 0 to 5) (tomato [2]; Day 0, room temperature (25-30° C.)): 0 (an area in which the surface of tomato was colored in pink was 10% or less) (2×) and 1 (an area in which the surface of tomato was completely colored in red was 10 to 40%) and 2 (an area in which the surface of tomato was completely colored in red was 40 to 70%) | Tomato results: reddening level (grade 0 to 5) (tomato [2]; Day 1, room temperature (25-30° C.)): 0 (an area in which the surface of tomato was colored in pink was 10% or less) (2×) and 1 (an area in which the surface of tomato was completely colored in red was 10 to 40%) and 2 (an area in which the surface of tomato was completely colored in red was 40 to 70%) | Tomato results: reddening level (grade 0 to 5) (tomato [2]; Day 2, room temperature (25-30° C.)): 0 (an area in which the surface of tomato was colored in pink was 10% or less) (2×) and 1 (an area in which the surface of tomato was completely colored in red was 10 to 40%) and 3 (an area in which the surface of tomato was completely colored in red was 70% or more and the bottom area remained green) | Tomato results: reddening level (grade 0 to 5) (tomato [2]; Day 3, room temperature (25-30° C.)): 1 (an area in which the surface of tomato was completely colored in red was 10 to 40%) and 0 (an area in which the surface of tomato was colored in pink was 10% or less) and 2 (an area in which the surface of tomato was completely colored in red was 40 to 70%) and 4 | reddening level (grade 0 to 5) (tomato [3]; 100 μM, Day 0, room temperature (25-30° C.)): 0 (an area in which the surface of tomato was colored in pink was 10% or less) (2×) and 1 (an area in which the surface of tomato was completely colored in red was 10 to 40%) and 2 (an area in which the surface of tomato was completely colored in red was 40 to 70%) | reddening level (grade 0 to 5) (tomato [3]; 100 μM, Day 1, room temperature (25-30° C.)): 0 (an area in which the surface of tomato was colored in pink was 10% or less) (2×) and 1 (an area in which the surface of tomato was completely colored in red was 10 to 40%) and 2 (an area in which the surface of tomato was completely colored in red was 40 to 70%) | reddening level (grade 0 to 5) (tomato [3]; 100 μM, Day 2, room temperature (25-30° C.)): 1 (an area in which the surface of tomato was completely colored in red was 10 to 40%) (2×) and 2 (an area in which the surface of tomato was completely colored in red was 40 to 70%) and 3 (an area in which the surface of tomato was completely colored in red was 70% or more and the bottom area remained green) | reddening level (grade 0 to 5) (tomato [3]; 100 μM, Day 3, room temperature (25-30° C.)): 2 (an area in which the surface of tomato was completely colored in red was 40 to 70%) (2×) and 3 (an area in which the surface of tomato was completely colored in red was 70% or more and the bottom area remained green) and 4 | reddening level (grade 0 to 5) (tomato [3]; 1.0 mM, Day 0, room temperature (25-30° C.)): 0 (an area in which the surface of tomato was colored in pink was 10% or less) (2×) and 1 (an area in which the surface of tomato was completely colored in red was 10 to 40%) and 2 (an area in which the surface of tomato was completely colored in red was 40 to 70%) | reddening level (grade 0 to 5) (tomato [3]; 1.0 mM, Day 1, room temperature (25-30° C.)): 0 (an area in which the surface of tomato was colored in pink was 10% or less) (2×) and 1 (an area in which the surface of tomato was completely colored in red was 10 to 40%) and 2 (an area in which the surface of tomato was completely colored in red was 40 to 70%) | reddening level (grade 0 to 5) (tomato [3]; 1.0 mM, Day 2, room temperature (25-30° C.)): 0 (an area in which the surface of tomato was colored in pink was 10% or less) (2×) and 1 (an area in which the surface of tomato was completely colored in red was 10 to 40%) and 3 (an area in which the surface of tomato was completely colored in red was 70% or more and the bottom area remained green) | reddening level (grade 0 to 5) (tomato [3]; 1.0 mM, Day 3, room temperature (25-30° C.)): 1 (an area in which the surface of tomato was completely colored in red was 10 to 40%) (2×) and 2 (an area in which the surface of tomato was completely colored in red was 40 to 70%) and 3 (an area in which the surface of tomato was completely colored in red was 70% or more and the bottom area remained green)
